Results taken from PMC7782499, “Progerinin, an optimized progerin-lamin A binding inhibitor, ameliorates premature senescence phenotypes of Hutchinson-Gilford progeria syndrome” (Communications Biology, 2021).
Several values for one entry are separate records, joined by “and”; a condition that tells them apart may be missing. Identical values can stand only once.

Tested on: Lmna G609G/G609G mouse
Assay: Body weight of Lmna G609G/G609G mice (ratio, week 4 = 1)
Format: in vivo
Conditions: for body weight: IP injection
Source text: Fig. 3 In vivo favorable effect of SLC-D011. A Gross morphology of Lmna^G609G/G609G mice (10 weeks old) was ameliorated after injection with SLC-D011. At the same age, the experimental group (D011) of mice were larger than vehicle-injected control (Con) subjects regardless of gender. B, C SLC-D011 increases body weight B and extends life span C of Lmna^G609G/G609G progeria model mouse (Con: n = 8; SLC-D011: n = 8). Compared with 14.8 weeks of average (ave) life span with maximum (max) life span of 15.5 weeks, 20 mg/kg of intraperitoneal (i.p) injection (twice a week) of SLC-D011 could extend the life span upto 19 weeks (max = 21 weeks). Lmna^G609G/G609G mice were injected with SLC-D011 from age of 5-week old, *p < 0.05. D Gross morphology of SLC-D011 injected Lmna^G609G/+ mouse. […] E SLC-D011 increases body weights of Lmna^G609G/+ mice (Con: n = 10; SLC-D011: n = 11), *p < 0.05. F Favorable effect of SLC-D011 on life span of Lmna^G609G/+ mice. Compared with vehicle-injected control group (ave = 46.7 weeks and max = 48 weeks), SLC-D011 treatment obviously extended the average life span to 63 weeks (max = 64 weeks). The injection was started from 32 weeks old, **p < 0.001. “Con” means vehicle (a solvent composed of DMSO and PBS)-injected mouse group. TEXT PRINTED IN THE PICTURE: (C) D011: Kaplan-Meier survival curve in Lmna^G609G/G609G: Ave=19; Kaplan-Meier survival curve in Lmna^G609G/G609G: Max=21 | (F) D011: Kaplan-Meier survival curve in Lmna^G609G/+: Ave=63; Kaplan-Meier survival curve in Lmna^G609G/+: Max=64 DOUBTS OF THE COPYIST ABOUT THIS PICTURE: Panels C and F: the Ave/Max labels are not printed with a group name. They are assigned to D011 (solid curve) or Con (dashed curve) only by their position beside the curves. / Panel C Ave=14.8, Max=15.5 and panel F Ave=46.7, Max=48 stand beside the dashed Con curve. They are left out because Con is the control group, not a substance. / No unit is printed with the Ave/Max values. Only the axis reads Age (weeks).
Fig. 4 Oral administration of SLC-D011 suppresses premature aging features. A Gross morphology of SLC-D011-treated (D011) mice at 8 weeks old. Body size of treated mouse was apparently larger than that of the untreated control (Con) mouse. B Oral administration of SLC-D011 increases body weights of Lmna^G609G/G609G mice. Compared with untreated control group, body weight of treated mouse was increased by ~35%, *p < 0.05. C Oral administration of SLC-D011 extends the life span of Lmna^G609G/G609G mouse. SLC-D011 in monoolein-based solution was treated by oral gavage (50 mg/kg, daily) from 5 weeks old. […] E Grip test of Lmna^G609G/+ mice at 41-week-old was performed after administration of SLC-D011 for 6 weeks. The test was repeated 10 times for each mouse (n > 4), **p < 0.001. Data are presented as mean ± SD. F Electrocardiographic analysis of Lmna^G609G/+ mice (untreated: n = 4; SLC-D011: n = 4) and Lmna^+/+ mice (n = 3) after treatment with SLC-D011 for 6 weeks (unpaired t test). Heart rate is shown as beats per minute (bpm). G Dental abnormalities in Lmna^G609G/+ mice (untreated: n = 4; SLC-D011: n = 5) and Lmna^+/+ mice (n = 4). […] Lower incisors of Lmna^G609G transgenic mice grow toward the palate because of malocclusion. Oral administration of SLC-D011 for 6 weeks alleviates dental abnormalities. H Anti-aging effects of single treatment of SLC-D011 or lonafarnib were measured in HGPS patients-derived cells (AG11513, AG03199, AG11498, and AG03198, Coriell Cell Repositories). Single treatment of SLC-D011, compared to lonafarnib, reduced the expression of progerin but induced the expression of H3K9me3 and cyclin B1 in HGPS cells more effectively. HGPS patients-derived cells were treated with SLC-D011 (500 nM) or lonafarnib (500 nM) for 3 days. I Scheme of interaction between lamin A and progerin. SLC-D011 interrupts the interaction between lamin A and progerin through direct binding to the C-terminal region of progerin. […]

In the case of `CC1(C)Oc2cc3oc(=O)ccc3cc2C[C@@H]1OC/C=C/c1ccccc1` [SLC-D011], the body weight (after week 5) is reported as 1.167 and 1.25 and 1.182 and 1, the body weight (after week 7) is reported as 1.333 and 1.417 and 1.273 and 1.077 and the body weight (after week 8) is reported as 1.5 and 1.25 and 1.273 and 1 and 1.462. For the same compound, the body weight (after week 9) was 1.417 and 1.25 and 1.273 and 1 and 1.385, the body weight (after week 10) was 1.333 and 1.167 and 1.182 and 1 and the body weight (after week 13) was 1.167 and 0.8333 and 1.091 and 0.8462. The body weight (after week 15) was 1 and 0.6667 and 0.9231, the body weight (after week 16) was 1 and 0.8182 and 0.8462 and the body weight (after week 17) was 0.8333 and 0.8182 and 0.7692. For the same compound, the body weight (column after week 4) was 1.083 and 1, the body weight (column after week 6) was 1.25 and 1.333 and 1.273 and 1.077 and the body weight (column after week 11) was 1.333 and 1.083 and 1.182 and 1. For the same compound, the body weight (column after week 12) was 1.25 and 0.9167 and 1.182 and 0.9231, the body weight (column after week 14) was 1.083 and 0.75 and 1.091 and 0.9231 and the body weight (column after week 18) was 0.8333 and 0.7692. The body weight (column after week 19) was 0.75, the body weight (week 5) was 1.167 and 1.091 and 1 and the body weight (week 6) was 1.167 and 1.333 and 1.273 and 1. For the same compound, the body weight (week 7) was 1.333 and 1.417 and 1.273 and 1, the body weight (week 8) was 1.417 and 1.273 and 1.077 and 1.385 and the body weight (week 10) was 1.417 and 1.167 and 1.273 and 1 and 1.385. For the same compound, the body weight (week 11) was 1.333 and 1.083 and 1.182 and 1.077, the body weight (week 12) was 1.25 and 1 and 1.182 and 0.9231 and the body weight (week 13) was 1.25 and 0.8333 and 1.182 and 0.9231. The body weight (week 15) was 1.083 and 0.75 and 1.091 and 0.8462, the body weight (week 16) was 1 and 0.8462 and the body weight (week 17) was 0.8333 and 0.8182 and 0.8462. For the same compound, the body weight (week 18) was 0.8333 and 0.7692, the body weight (week 19) was 0.8333 and the “Increase of body weight compared with untreated control” value (oral administration) was ~ 35%.
